Source: US20210238139A1, “MODULATORS OF TRYPTOPHAN CATABOLISM” (E-Therapeutics PLC, priority 2018, published 2021)

System: SK-OV-3 cells
Experiment: Effect of compounds on tryptophan catabolism in SK-OV-3 cell line (inhibition of kynurenine production, LC-MS/MS)
Type: cell-based
Conditions: Homo sapiens, SK-OV-3, 24 h, SK-OV-3 cell line, 24 h incubation, kynurenine in supernatant by LC-MS/MS; read-out: IC50 Ranges (ic50 values for inhibition of Kynurenine production)
How it was run: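 Kynurenine in supernatants quantified by LC-MS/MS after 24 h compound exposure (37 °C; top 30 μM, eight 3-fold steps, duplicate) in DMEM F-12 containing 6 mg/mL L-tryptophan. Cells pre-plated overnight in McCoy's 5A with 10% FBS. Viability checked in parallel by ATP luminescence.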

With `Cc1ccc(CN(C(=O)Nc2ccccc2)C2CCCC2)o1` [Compound 176, 1-cyclopentyl-1-[(5-methyl-2-furyl)methyl]-3-phenyl-urea] as the molecule, how does the IC50 read?
The IC50 was 100 to 500 nM.

Which IC50 does the source give for `O=C(Nc1ccc(F)cc1)N(Cc1ncccn1)C1CCCC1` [Compound 72, 1-cyclopentyl-3-(4-fluorophenyl)-1-(pyrimidin-2-ylmethyl)urea] here?
The IC50 was greater than 5000 nM.

`O=C(Nc1ccccc1)N(Cc1ccoc1)C1CCCC1` [Compound 64, 1-cyclopentyl-1-(3-furylmethyl)-3-phenyl-urea] was tested. Which IC50 did it give?
The IC50 was 1000 to 5000 nM.

`N#Cc1cc(CN(C(=O)Nc2ccc(F)cc2)C2CCCC2)ccc1F` [Compound 53, 1-[(3-cyano-4-fluoro-phenyl)methyl]-1-cyclopentyl-3-(4-fluorophenyl)urea] was tested. Which IC50 did it give?
Its IC50 is 100 to 500 nM.

Which IC50 does the source give for `N#Cc1cccc(CN(C(=O)Nc2ccc(C#CCO)cc2)C2CCC2)n1` [Compound 319] here?
The IC50 was less than 100 nM.

How did the IC50 turn out when `Cc1ccc(CN(C(=O)Nc2ccc3c(c2)CNC3=O)C2CCCC2)o1` [Compound 307] was run?
The IC50 was greater than 5000 nM.

How did the IC50 turn out when `COc1ccc(CN(C(=O)NCCc2ccccc2)C2CCCC2)cc1C` [Compound 46, 1-cyclopentyl-1-[(4-methoxy-3-methyl-phenyl)methyl]-3-(2-phenylethyl)urea] was run?
The IC50 was 1000 to 5000 nM.

For `Cc1ccc(CN(C(=O)Nc2ccccc2C#N)C2CCCC2)o1` [Compound 95, 3-(2-cyanophenyl)-1-cyclopentyl-1-[(5-methyl-2-furyl)methyl]urea], which IC50 is on record?
The IC50 was 1000 to 5000 nM.

For `Cn1ncc(CN(C(=O)Nc2ccccc2)C2CCCC2)c1Cl` [Compound 41, 1-[(5-chloro-1-methyl-pyrazol-4-yl)methyl]-1-cyclopentyl-3-phenyl-urea], which IC50 is on record?
Its IC50 is 1000 to 5000 nM.

`Cc1ccc(CN(C(=O)Nc2ccc(C#N)cc2)c2c(C)noc2C)o1` [Compound 230, 3-(4-cyanophenyl)-1-(3,5-dimethylisoxazol-4-yl)-1-[(5-methyl-2-furyl)methyl]urea] was tested. Which IC50 did it give?
The IC50 was 100 to 500 nM.

For `Cc1ccc(CN(C(=O)Nc2ccc(Cl)cc2)c2nccn2C)o1` [Compound 182, 3-(4-chlorophenyl)-1-[(5-methyl-2-furyl)methyl]-1-(1-methylimidazol-2-yl) urea], which IC50 is on record?
Its IC50 is 100 to 500 nM.

`O=C(Nc1ccc(Cl)cc1)N(Cc1ccc2ncoc2c1)C1CCC1` [Compound 237, 1-(1,3-benzoxazol-6-ylmethyl)-3-(4-chlorophenyl)-1-cyclobutyl-urea] was tested. Which IC50 did it give?
The IC50 was 100 to 500 nM.

With `Cc1ccc(CN(C(=O)Nc2ccc(Cl)cc2)[C@H]2C[C@@H](F)C2)o1` [Compound 271, 3-(4-chlorophenyl)-1-(3-fluorocyclobutyl)-1-[(5-methyl-2-furyl)methyl]urea] as the molecule, how does the IC50 read?
Its IC50 is 100 to 500 nM.

`Cc1ccc(CN(C(=O)Nc2ccc(C#N)cc2)c2nonc2C)o1` [Compound 322, 3-(4-cyanophenyl)-1-[(5-methyl-2-furyl)methyl]-1-(4-methyl-1,2,5-oxadiazol-3-yl)urea] was tested. Which IC50 did it give?
Its IC50 is less than 100 nM.

Which IC50 does the source give for `Cc1ccc(CN(C(=O)Nc2ccccc2)C2CCN(C(=O)OC(C)(C)C)CC2)o1` [Compound 136, tert-butyl 4-[(5-methyl-2-furyl)methyl-(phenylcarbamoyl)amino]piperidine-1-carboxylate] here?
Its IC50 is greater than 5000 nM.

How did the IC50 turn out when `COc1ccc(NC(=O)N(Cc2cccs2)C2CCCC2)cc1` [Compound 14, 1-cyclopentyl-3-(4-methoxyphenyl)-1-(2-thienylmethyl)urea] was run?
Its IC50 is greater than 5000 nM.

Which IC50 does the source give for `Cc1ccc(CN(C(=O)Nc2ccc(Cl)cc2)C2CCC(C#N)C2)o1` (stereo not shown) [Compound 254, 3-(4-chlorophenyl)-1-(3-cyanocyclopentyl)-1-[(5-methyl-2-furyl)methyl]urea] here?
The IC50 was 500 to 1000 nM.

Which IC50 does the source give for `Cc1nocc1N(Cc1cccc(C(F)(F)F)c1)C(=O)Nc1ccc(-n2cc(CO)nn2)cc1` [Compound 308, 3-[4-[4-(hydroxymethyl)triazol-1-yl]phenyl]-1-(3-methylisoxazol-4-yl)-1-[[3-(trifluoromethyl)phenyl]methyl]urea] here?
The IC50 was 500 to 1000 nM.

Which IC50 does the source give for `N#Cc1cc(CN(C(=O)Nc2ccccc2)C2CCCC2)ccc1F` [Compound 50, 1-[(3-cyano-4-fluoro-phenyl)methyl]-1-cyclopentyl-3-phenyl-urea] here?
The IC50 was 100 to 500 nM.

Which IC50 does the source give for `Cc1ccc(CN(C(=O)Nc2ccc(C#N)cc2)c2nccn2C)o1` [Compound 233, 3-(4-cyanophenyl)-1-[(5-methyl-2-furyl)methyl]-1-(1-methylimidazol-2-yl)urea] here?
Its IC50 is 1000 to 5000 nM.

With `O=C(Nc1ccc(Cl)cc1)N(Cc1ccon1)C1CCCC1` [Compound 149, 3-(4-chlorophenyl)-1-cyclopentyl-1-(isoxazol-3-ylmethyl)urea] as the molecule, how does the IC50 read?
The IC50 was 500 to 1000 nM.

With `O=C(Nc1ccccc1Cl)N(Cc1cccs1)C1CCCC1` [Compound 2, 3-(2-chlorophenyl)-1-cyclopentyl-1-(2-thienylmethyl)urea] as the molecule, how does the IC50 read?
Its IC50 is 1000 to 5000 nM.

`Cc1ccc(CN(C(=O)Nc2ccc(Cl)cc2)C2CC(F)C2)o1` (stereo not shown) [Compound 222, 3-(4-chlorophenyl)-1-(3-fluorocyclobutyl)-1-[(5-methyl-2-furyl)methyl]urea] was tested. Which IC50 did it give?
The IC50 was 100 to 500 nM.

With `Cc1oncc1N(Cc1cccc(C(F)(F)F)c1)C(=O)Nc1ccc(C#N)cc1` [Compound 293, 3-(4-cyanophenyl)-1-(5-methylisoxazol-4-yl)-1-[[3-(trifluoromethyl)phenyl]methyl]urea] as the molecule, how does the IC50 read?
Its IC50 is 100 to 500 nM.

Which IC50 does the source give for `Cc1ccc(CN(C(=O)Nc2ccccc2)c2ncco2)o1` [Compound 179, 1-[(5-methyl-2-furyl)methyl]-1-oxazol-2-yl-3-phenyl-urea] here?
Its IC50 is greater than 5000 nM.

For `C#Cc1ccc(NC(=O)N(Cc2cc3ccccc3o2)C2CCCC2)cc1` [Compound 131, 1-(benzofuran-2-ylmethyl)-1-cyclopentyl-3-(4-ethynylphenyl)urea], which IC50 is on record?
The IC50 was less than 100 nM.

With `Cc1ccc(CN(C(=O)Nc2nnc(-c3cc4ccccc4o3)o2)C2CCCC2)o1` [Compound 151, 3-[5-(benzofuran-2-yl)-1,3,4-oxadiazol-2-yl]-1-cyclopentyl-1-[(5-methyl-2-furyl)methyl]urea] as the molecule, how does the IC50 read?
Its IC50 is 500 to 1000 nM.

Which IC50 does the source give for `Cc1ccc(CN(C(=O)Nc2nc(-c3ccccc3)cs2)C2CCCC2)o1` [Compound 129, 1-cyclopentyl-1-[(5-methyl-2-furyl)methyl]-3-(4-phenylthiazol-2-yl)urea] here?
The IC50 was 1000 to 5000 nM.

Which IC50 does the source give for `COc1ncc(CN(C(=O)Nc2ccccc2)C2CCCC2)s1` [Compound 49, 1-cyclopentyl-1-[(2-methoxythiazol-5-yl)methyl]-3-phenyl-urea] here?
The IC50 was 1000 to 5000 nM.

With `Cc1ccc(CN(C(=O)Nc2ccc(C#N)cc2)C2CCC(F)(F)C2)o1` (stereo not shown) [Compound 244, 3-(4-cyanophenyl)-1-(3,3-difluorocyclopentyl)-1-[(5-methyl-2-furyl)methyl]urea] as the molecule, how does the IC50 read?
The IC50 was 100 to 500 nM.

Which IC50 does the source give for `Cc1ccc(CN(C(=O)Nc2ccc(C#N)cc2)C2CCCC2C#N)o1` (stereo not shown) [Compound 219, 1-(2-cyanocyclopentyl)-3-(4-cyanophenyl)-1-[(5-methyl-2-furyl)methyl]urea] here?
The IC50 was 100 to 500 nM.

Which IC50 does the source give for `CC(=O)N1CCC(C)(CN(C(=O)Nc2ccccc2)C2CCCC2)CC1` [Compound 97, 1-[(1-acetyl-4-methyl-4-piperidyl)methyl]-1-cyclopentyl-3-phenyl-urea] here?
Its IC50 is 1000 to 5000 nM.

Which IC50 does the source give for `Cc1ccc(CN(C(=O)Nc2ccc(C#N)cc2)C23CC(C2)C3)o1` [Compound 285, 1-(1-bicyclo[1.1.1]pentanyl)-3-(4-cyanophenyl)-1-[(5-methyl-2-furyl)methyl]urea] here?
The IC50 was 100 to 500 nM.

Same assay, conditions: SK-OV-3 cell line, 24 h incubation, kynurenine in supernatant by LC-MS/MS; read-out: IC50 Ranges (ic50 values for inhibition of Kynurenine production)

Which IC50 does the source give for `Cc1ccc(CN(C(=O)Nc2ccc(Cl)cc2)c2cncn2C)o1` [Compound 242, 3-(4-chlorophenyl)-1-[(5-methyl-2-furyl)methyl]-1-(3-methylimidazol-4-yl) urea] here?
Its IC50 is 100 to 500 nM.
